# Literature values, collected in PubChem BioAssay AID1259409 (Chemical Carcinogenesis Research Information System (CCRIS), 2018).
# Values joined by “and” are separate entries in the source; they are usually repeats but may differ in a detail not shown here. Equal values may be shown once.
# Tested on: rodent chemically induced tumor inhibition, incidence and multiplicity
# Assay: CCRIS tumor inhibitor studies
structure (smiles),measurement,setting,value
CC(C)(C)c1cc(C(C)(C)C)c(O)cc1O,"tumour outcome (control, treated, inhibition, significance)","Carcinogen: BENZO[A]PYRENE, 50-32-8, Dose [Inhibitor]: 0.03 MMOL/G OF DIET DAILY STARTING 7 D BEFORE AND CONTINUING THROUGH 3 D AFTER CARCINOGEN TREATMENT FOLLOWED BY OBSERVAT, Route [Inhibitor]: ORAL, Species: MOUSE, Strain/Sex: ICR/FEMALE, Target Tissue: Type of Lesion: FORESTOMACH: NEOPLASM, Dose [Carcinogen]: 1 MG IN 0.2 ML CORN OIL 2/WK FOR 4 WK, Promoter: NONE USED","94%, 100%, -6%, not significant"
O=C(c1ccc(OCCN2CCCCC2)cc1)c1c(-c2ccc(O)cc2)sc2cc(O)ccc12,"tumour outcome (control, treated, inhibition, significance)","Carcinogen: 7,12-DIMETHYLBENZ[A]ANTHRACENE (DMBA) [57-97-6], Dose [Inhibitor]: 50 MG/KG/D FOR 37 WK (STUDY DURATION: 37 WK), Route [Inhibitor]: ORAL GAVAGE, Species: MOUSE, Strain/Sex: SENCAR/FEMALE, Target Tissue: Type of Lesion: MAMMARY: CARCINOMA, Dose [Carcinogen]: 20 UG/D FOR 6 WKS (STUDY DURATION: 37 WKS), Promoter: MEDROXYPROGESTERONE ACETATE (71-58-9)","10/21 (48%); 5/17 (29%), 40%, p=0.20"
same,"tumour outcome (control, treated, inhibition, significance)","Carcinogen: ESTRADIOL, 50-28-2, Dose [Inhibitor]: 0, 25 MG PELLET 2 PELLETS IMPLANTED EVERY 3 MO BEGINNING 15 D PRIOR TO CARCINOGEN DOSE (STUDY DURATION: 8 MO), Route [Inhibitor]: SUBCUTANEOUS IMPLANT, Species: HAMSTER, Strain/Sex: SYRIAN/MALE, Target Tissue: Type of Lesion: KIDNEY: TUMOR, Dose [Carcinogen]: 25 MG PELLET IMPLANTED EVERY 3 MO, Promoter: NONE USED","5/5 (100%), 3/4 (75%), 25%, not significant"
same,"tumour outcome (control, treated, inhibition, significance)","Carcinogen: N-METHYL-N-NITROSOUREA, 684-93-5, Dose [Inhibitor]: 0, 5 MG/KG BW/D 2/WK TO DORSAL AREA STARTING 10 D BEFORE CARCINOGEN TREATMENT FOR THE DURATION OF THE STUDY (STUDY DURAT, Route [Inhibitor]: SUBCUTANEOUSLY, Species: RAT, Strain/Sex: SPRAGUE-DAWLEY/FEMALE, Target Tissue: Type of Lesion: MAMMARY GLAND: TUMOR, Dose [Carcinogen]: 50 MG/KG BW 2/WK FOR 1 WK BW 43-54 POSTNATAL DAYS","80%, 26%, 67%, p<0.001"
same,"tumour outcome (control, treated, inhibition, significance)","Carcinogen: N-METHYL-N-NITROSOUREA, 684-93-5, Dose [Inhibitor]: 0, 20 MG/KG OF DIET FOR DURATION OF STUDY BEGINNING 1 WK POST CARCINOGEN DOSE (STUDY DURATION: 5 MO), Route [Inhibitor]: ORAL, Species: RAT, Strain/Sex: SPRAGUE-DAWLEY/FEMALE, Target Tissue: Type of Lesion: MAMMARY GLAND: TUMOR, Dose [Carcinogen]: 50 MG/KG BW ONCE, Promoter: NONE USED","23/24 (96%), 10/12 (83%), 14%, p=0.26 and 29/30 (97%), 14/30 (47%), 52%, p=0.0001"
same,"tumour outcome (control, treated, inhibition, significance)","Carcinogen: N-METHYL-N-NITROSOUREA, 684-93-5, Dose [Inhibitor]: 0, 60 MG/KG OF DIET FOR DURATION OF STUDY BEGINNING 1 WK POST CARCINOGEN DOSE (STUDY DURATION: 5 MO), Route [Inhibitor]: ORAL, Species: RAT, Strain/Sex: SPRAGUE-DAWLEY/FEMALE, Target Tissue: Type of Lesion: MAMMARY GLAND: TUMOR, Dose [Carcinogen]: 50 MG/KG BW ONCE, Promoter: NONE USED","23/24 (96%), 8/12 (67%), 30%, p=0.03 and 29/30 (97%), 15/30 (50%), 48%, p=0.0002"
CCCCCCCCCCCCCCCC(=O)OCC1(O)CC23CC[C@@H]4c5ccoc5C=CC4(C)C2CCC1C3 (stereo partly drawn),"tumour outcome (control, treated, inhibition, significance)","Carcinogen: 7,12-DIMETHYLBENZ[A]ANTHRACENE, 57-97-6, Dose [Inhibitor]: 0, 60 MG 1/D FOR 3 D BEGINNING 3 D PRIOR TO CARCINOGEN DOSE (STUDY DURATION: 20 WK), Route [Inhibitor]: GAVAGE, Species: RAT, Strain/Sex: SPRAGUE-DAWLEY/FEMALE, Target Tissue: Type of Lesion: MAMMARY GLAND: TUMOR, Dose [Carcinogen]: 12 MG IN 1 ML OLIVE OIL ONCE, Promoter: NONE USED","84%, 56%, 33%, p<0.05"
same,"tumour outcome (control, treated, inhibition, significance)","Carcinogen: 7,12-DIMETHYLBENZ[A]ANTHRACENE, 57-97-6, Dose [Inhibitor]: 0, 60 MG ONCE 4 HR PRIOR TO CARCINOGEN DOSE (STUDY DURATION: 20 WK), Route [Inhibitor]: GAVAGE, Species: RAT, Strain/Sex: SPRAGUE-DAWLEY/FEMALE, Target Tissue: Type of Lesion: MAMMARY GLAND: TUMOR, Dose [Carcinogen]: 12 MG IN 1 ML OLIVE OIL ONCE, Promoter: NONE USED","84%, 63%, 25%, p<0.05"
